27 compounds from ChEMBL document CHEMBL4609996, “Discovery of a novel 2,3-dimethylimidazo[1,2-a]pyrazine-6-carboxamide M4 positive allosteric modulator (PAM) chemotype” (Bioorg Med Chem Lett, 2020) can be followed below.

As usually defined, the EC50 is the concentration needed to bring the measured effect to its halfway point. A word on the CLint scaled: it is the rate of metabolic loss divided by the concentration. High values mean faster metabolism, low ones greater metabolic stability. Usually fraction unbound stands for free concentration divided by total concentration. Broadly, the Kp is the ratio of the level in a tissue or fluid to that in plasma or blood.

Series [1] deals with T1, Muscarinic acetylcholine receptor M4 (Homo sapiens, UniProt P08173).
T1 sequence (P08173 whole entry): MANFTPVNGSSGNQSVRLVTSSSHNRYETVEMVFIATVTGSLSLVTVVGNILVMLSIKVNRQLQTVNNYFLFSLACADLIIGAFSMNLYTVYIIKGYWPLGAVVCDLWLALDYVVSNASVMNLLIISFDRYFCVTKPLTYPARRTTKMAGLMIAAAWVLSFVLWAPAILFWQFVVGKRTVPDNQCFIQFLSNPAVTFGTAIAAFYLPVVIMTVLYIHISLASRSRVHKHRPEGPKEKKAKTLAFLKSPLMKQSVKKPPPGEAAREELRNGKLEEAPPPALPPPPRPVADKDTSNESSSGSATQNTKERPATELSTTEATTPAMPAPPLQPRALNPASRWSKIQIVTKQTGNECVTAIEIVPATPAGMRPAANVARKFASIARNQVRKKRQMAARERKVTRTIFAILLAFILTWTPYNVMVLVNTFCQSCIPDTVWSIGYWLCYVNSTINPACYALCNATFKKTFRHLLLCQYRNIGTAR
The experiment in a line: Positive allosteric modulation of human muscarinic M4 receptor expressed in CHO cells co-expressing Gqi5 assessed as increase in acetylcholine-induced calcium mobilization. It counts as functional, cell-based. On the technique in general: A change in cytosolic calcium serves as a functional read-out for many receptors and channels.

Series [2] concerns the target T2, Muscarinic acetylcholine receptor M4 (Rattus norvegicus, UniProt P08485).
T2 sequence (P08485 whole entry): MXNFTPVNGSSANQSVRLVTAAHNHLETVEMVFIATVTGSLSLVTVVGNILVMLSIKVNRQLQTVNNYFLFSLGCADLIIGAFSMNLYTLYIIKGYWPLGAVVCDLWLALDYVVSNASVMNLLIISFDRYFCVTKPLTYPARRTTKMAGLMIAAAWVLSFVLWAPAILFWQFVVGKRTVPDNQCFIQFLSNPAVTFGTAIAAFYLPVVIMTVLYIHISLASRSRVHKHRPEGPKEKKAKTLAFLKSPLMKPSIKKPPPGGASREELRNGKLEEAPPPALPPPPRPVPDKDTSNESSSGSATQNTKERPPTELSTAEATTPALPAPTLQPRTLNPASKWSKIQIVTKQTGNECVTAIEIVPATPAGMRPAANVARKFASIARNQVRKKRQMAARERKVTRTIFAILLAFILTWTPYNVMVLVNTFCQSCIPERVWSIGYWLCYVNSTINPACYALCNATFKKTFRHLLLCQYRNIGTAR
The experiment in a line: Positive allosteric modulation of rat muscarinic M4 receptor.

Series [3] is described as follows: Intrinsic clearance in rat microsomes. Format: ADME, Microsome.
Series [4] in a line: Intrinsic clearance in human microsomes. Format: ADME, Microsome.
Series [5] in a line: Unbound fraction in rat plasma. Format: ADME, cell-free.
Series [6] can be described thus: Unbound fraction in human plasma. Format: ADME, cell-free.
A short description of series [7]: Unbound fraction in rat brain. Format: ADME, tissue-based.
The nature of series [8]: Brain to plasma permeability coefficient, Kp of the compound in rat. It counts as ADME, cell-free.
The nature of series [9]: Unbound brain-to-plasma concentration ratio in rat. Format: ADME, cell-free. To be noted: read-out: K(p,uu,brain).
A short description of series [10]: Hepatic clearance in rat. It counts as ADME. The note with it: in vivo.
Series [11] in a line: Hepatic clearance in human. Format: ADME.

On to `COc1cc(N2CC(NC(=O)c3ccc4nnc(C)n4c3)C2)c(Cl)cn1`, for which the half-maximal effective concentration (EC50) in [1] (read-out: EC50) is greater than 10000 nM.

On to `Cc1c2nc(C(=O)NC3CN(c4cc(Cl)ncc4Cl)C3)ccc2nn1C`, for which the half-maximal effective concentration (EC50) result in series [1] (cho) is “Not Active”.

For the compound `CCn1nc2ccc(C(=O)NC3CN(c4cc(Cl)ncc4Cl)C3)cc2c1C`, in series [1] (cho), the 50% effective concentration (EC50) entry was “Not Active”.

Regarding `COc1cc(N2CC(NC(=O)c3ccc4nc(C)c(C)n4n3)C2)c(Cl)cn1`, in [1] (cho), the EC50 entry was “Not Active”.

On to `COc1cc(N2CC(NC(=O)c3ccc4nn(C)c(C)c4n3)C2)c(Cl)cn1`, for which the EC50 result in series [1] (cho) is listed as “Not Active”.

`Cn1c(C(F)(F)F)nc2ccc(C(=O)NC3CN(c4cc(Cl)ncc4Cl)C3)cc21` came in with a concentration giving a half-maximal response (EC50) in [2] of 378 nM.

Consider `Cc1nc2ccc(C(=O)NC3CN(c4cc(Cl)ncc4Cl)C3)nn2c1C`, for which the 50% effective concentration (EC50) result in series [1] (cho) is recorded as “Not Active”.

In series [2], `COc1cc(N2CC(NC(=O)c3cn4c(C)c(C)nc4cn3)C2)c(Cl)cn1` registered an EC50 of 295 nM. For the same compound, the intrinsic metabolic clearance (CLint scaled) in series [3] was 83 mL/min/kg; in series [4] it was 25 mL/min/kg. In addition, the fraction unbound in series [5] came out at 0.017; in series [6], 0.045; in [7], 0.021. Besides, in series [8], the concentration ratio (Kp) was less than 1.08. In addition, the Kp uu in series [9] was less than 1.33.

As to `COc1cc(N2CC(NC(=O)c3ccc4snc(C)c4c3)C2)c(Cl)cn1`, the half-maximal effective concentration (EC50) result in series [1] (cho) is recorded as “Not Active”.

Turning to `Cc1noc2ccc(C(=O)NC3CN(c4cc(Cl)ncc4Cl)C3)cc12`, in [1] (cho), the half-maximal effective concentration (EC50) entry was “Not Active”.

With `COc1cc(N2CC(NC(=O)c3ccc4onc(C)c4c3)C2)c(Cl)cn1`, the EC50 entry in [1] (cho) was “Not Active”.

As to `Cn1nc2ccc(C(=O)NC3CN(c4cc(Cl)ncc4Cl)C3)cc2c1C1CC1`, the half-maximal effective concentration (EC50) entry in [1] (cho) was “Not Active”.

For `Cn1nnc2ccc(C(=O)NC3CN(c4cc(Cl)ncc4Cl)C3)cc21`, the results for the unbound share (fraction unbound) in [5], in series [6] and in [7] were 0.024, 0.132 and 0.053, respectively. The concentration ratio (Kp) in series [8] was less than 0.05. Moreover, in [9], the Kp uu was less than 0.11. Further, the CLH in series [10] was found to be 8.7 mL/min/kg; in series [11], 21 mL/min/kg.

Consider `Cc1c2cc(C(=O)NC3CN(c4cc(Cl)ncc4Cl)C3)ncc2nn1C`, for which a half-maximal response in [2] (EC50) required 331 nM. The intrinsic clearance (CLint scaled) in [3] was found to be 59 mL/min/kg; in [4] it was 26 mL/min/kg. For the same compound, the values for the fraction unbound in series [5], in series [6] and in [7] were 0.022, 0.014 and 0.03, respectively. In series [8], this compound showed a Kp of 0.3. Further, the Kp uu in series [9] was determined as 0.41.

For `Cc1c2cc(C(=O)NC3CN(c4cc(Cl)ncc4Cl)C3)ccc2nn1C`, the fraction unbound in series [5] amounted to 0.042; in [6], 0.043; in series [7] it was 0.032. Further, in series [8], the Kp is 0.05. Further, the Kp uu in [9] turned out to be 0.04. In addition, the CLH is 20 mL/min/kg in series [10] and 13 mL/min/kg in series [11].

With `Cn1nc2ccc(C(=O)NC3CN(c4cc(Cl)ncc4Cl)C3)cc2c1C(F)(F)F`, the 50% effective concentration (EC50) entry in series [1] (cho) is “Not Active”.

Turning to `Cc1nnc2ccc(C(=O)NC3CN(c4cc(Cl)ncc4Cl)C3)cn12`, the EC50 in [1] (read-out: EC50) is greater than 10000 nM.

As for `Cc1nn(C)c2cnc(C(=O)NC3CN(c4cc(Cl)ncc4Cl)C3)cc12`, the CLint scaled in series [3] was determined as 85 mL/min/kg; in [4], 28 mL/min/kg. Besides, the fraction unbound in [5] came to 0.011; in [6], 0.039; in series [7], 0.021. The same compound yielded a Kp in [8] of less than 0.24. Besides, the Kp uu in series [9] was less than 0.45.

Consider `COc1cc(N2CC(NC(=O)c3cc4c(C)n(C)nc4cn3)C2)c(Cl)cn1`, for which, in series [2], a half-maximal effect (EC50) was put at 339 nM. In addition, the CLint scaled in series [3] amounted to 33 mL/min/kg; in [4], 28 mL/min/kg. In addition, the free fraction (fraction unbound) amounted to 0.022 in series [5], 0.017 in series [6] and 0.032 in series [7]. This compound also had a concentration ratio (Kp) in series [8] of 0.67. In series [9], the Kp uu turned out to be 0.97.

In the case of `Cc1c2cc(F)c(C(=O)NC3CN(c4cc(Cl)ncc4Cl)C3)cc2nn1C`, the EC50 result in series [1] (cho) was “Not Active”.

On to `COc1cc(N2CC(NC(=O)c3cc4nn(C)c(C)c4cc3F)C2)c(Cl)cn1`, for which the EC50 entry in [1] (cho) is “Not Active”.

As to `Cc1nsc2ccc(C(=O)NC3CN(c4cc(Cl)ncc4Cl)C3)cc12`, the concentration giving a half-maximal response (EC50) result in [1] (cho) is recorded as “Not Active”.

Consider `COc1cc(N2CC(NC(=O)c3ccc4sc(C)nc4c3)C2)c(Cl)cn1`, for which, in series [1] (cho), the half-maximal effective concentration (EC50) entry is listed as “Not Active”.

Compound `Cc1nc2cnc(C(=O)NC3CN(c4cc(Cl)ncc4Cl)C3)cn2c1C` returned an EC50 in series [2] of 233 nM. The values for the intrinsic metabolic clearance (CLint scaled) in series [3] and in [4] were 96 mL/min/kg and 33 mL/min/kg, respectively. Moreover, the fraction unbound came out at 0.009 in series [5], 0.04 in series [6] and 0.034 in series [7]. Further, the Kp in series [8] is 0.29. Also, the Kp uu in [9] is 1.09.

For the compound `Cn1nc2ccc(C(=O)NC3CN(c4cc(Cl)ncc4Cl)C3)cc2c1C(F)F`, the EC50 result in series [1] (cho) is listed as “Not Active”.

For the compound `Cc1nc2ccc(C(=O)NC3CN(c4cc(Cl)ncc4Cl)C3)cn2c1C`, the 50% effective concentration (EC50) in [2] came out at 433 nM. Moreover, the intrinsic clearance (CLint scaled) was determined as 130 mL/min/kg in series [3] and 39 mL/min/kg in [4]. The fraction unbound stood at 0.013 in series [5], 0.03 in series [6] and 0.027 in series [7]. The Kp in series [8] worked out at 0.1. The Kp uu in series [9] stood at 0.21.

`COc1cc(N2CC(NC(=O)c3ccc4c(c3)c(C)nn4C)C2)c(Cl)cn1`: in series [1] (cho), the half-maximal effective concentration (EC50) result is recorded as “Not Active”.
